Measured values published in ChEMBL document CHEMBL4000183, “Phenylpropanoids from Juglans mandshurica exhibit cytotoxicities on liver cancer cell lines through apoptosis induction” (Bioorg Med Chem Lett, 2017).
Calls of active or inactive are those of the source. No cut-off for these calls is given here.

Legend:
HepG2 [1] = assay: Cytotoxic activity against human HepG2 cells assessed as growth inhibition after 48 hrs by MTT assay; type: functional, cell-based
Hep 3B2 [2] = assay: Cytotoxic activity against human Hep3B cells assessed as growth inhibition after 48 hrs by MTT assay; type: functional, cell-based
Hep 3B2 [3] = assay: Cytotoxic activity against human Hep3B cells assessed as growth inhibition at 25 uM after 48 hrs by MTT assay; type: functional; settings: read-out: GI
Hep 3B2 [4] = assay: Cytotoxic activity against human Hep3B cells assessed as growth inhibition at 50 uM after 48 hrs by MTT assay; type: functional; settings: read-out: GI
HepG2 [5] = assay: Induction of apoptosis in human HepG2 cells assessed as decrease in pro-caspase 7 level at 60 uM after 48 hrs by Western blot analysis; type: functional, cell-based
HepG2 [6] = assay: Induction of apoptosis in human HepG2 cells assessed as formation of apoptotic bodies at 60 uM after 48 hrs by AO staining-based phase contrast microscopic analysis; type: functional, cell-based
HepG2 [7] = assay: Induction of apoptosis in human HepG2 cells assessed as increase in cleaved-caspase 7 level at 60 uM after 48 hrs by Western blot analysis; type: functional, cell-based
Hep 3B2 [8] = assay: Induction of apoptosis in human Hep3B cells assessed as decrease in pro-caspase 9 level at 50 uM after 48 hrs by Western blot analysis; type: functional, cell-based
Hep 3B2 [9] = assay: Cytotoxic activity against human Hep3B cells assessed as growth inhibition at 100 uM after 48 hrs by MTT assay; type: functional; settings: read-out: GI
HepG2 [10] = assay: Cytotoxic activity against human HepG2 cells assessed as growth inhibition at 100 uM after 48 hrs by MTT assay; type: functional; settings: HepG2, 48 h, read-out: GI
Hep 3B2 [11] = assay: Induction of apoptosis in human Hep3B cells assessed as decrease in pro-caspase 7 level at 50 uM after 48 hrs by Western blot analysis; type: functional, cell-based
Hep 3B2 [12] = assay: Induction of apoptosis in human Hep3B cells assessed as chromatin condensation at 50 uM after 48 hrs by AO staining-based phase contrast microscopic analysis; type: functional, cell-based
Hep 3B2 [13] = assay: Induction of apoptosis in human Hep3B cells assessed as increase in cleaved-caspase 9 level at 50 uM after 48 hrs by Western blot analysis; type: functional, cell-based
Hep 3B2 [14] = assay: Induction of apoptosis in human Hep3B cells assessed as decrease in Bcl-2 level at 50 uM after 48 hrs by Western blot analysis; type: functional, cell-based
HepG2 [15] = assay: Induction of apoptosis in human HepG2 cells assessed as chromatin condensation at 60 uM after 48 hrs by AO staining-based phase contrast microscopic analysis; type: functional, cell-based
Hep 3B2 [16] = assay: Induction of apoptosis in human Hep3B cells assessed as decrease in PARP level at 50 uM after 48 hrs by Western blot analysis; type: functional, cell-based
HepG2 [17] = assay: Induction of apoptosis in human HepG2 cells assessed as increase in Bax level at 60 uM after 48 hrs by Western blot analysis; type: functional, cell-based
HepG2 [18] = assay: Cytotoxic activity against human HepG2 cells assessed as growth inhibition at 12.5 uM after 48 hrs by MTT assay; type: functional; settings: HepG2, 48 h, read-out: GI
HepG2 [19] = assay: Induction of apoptosis in human HepG2 cells assessed as decrease in pro-caspase 9 level at 60 uM after 48 hrs by Western blot analysis; type: functional, cell-based
HepG2 [20] = assay: Cytotoxic activity against human HepG2 cells assessed as growth inhibition at 6.25 uM after 48 hrs by MTT assay; type: functional; settings: HepG2, 48 h, read-out: GI
HepG2 [21] = assay: Induction of apoptosis in human HepG2 cells assessed as decrease in PARP level at 60 uM after 48 hrs by Western blot analysis; type: functional, cell-based
HepG2 [22] = assay: Cytotoxic activity against human HepG2 cells assessed as growth inhibition at 50 uM after 48 hrs by MTT assay; type: functional; settings: HepG2, 48 h, read-out: GI
HepG2 [23] = assay: Induction of apoptosis in human HepG2 cells assessed as increase in cleaved-caspase 9 level at 60 uM after 48 hrs by Western blot analysis; type: functional, cell-based
Hep 3B2 [24] = assay: Induction of apoptosis in human Hep3B cells assessed as increase in Bax level at 50 uM after 48 hrs by Western blot analysis; type: functional, cell-based
HepG2 [25] = assay: Induction of apoptosis in human HepG2 cells assessed as nuclear fragmentation at 60 uM after 48 hrs by AO staining-based phase contrast microscopic analysis; type: functional, cell-based
Hep 3B2 [26] = assay: Cytotoxic activity against human Hep3B cells assessed as growth inhibition at 6.25 uM after 48 hrs by MTT assay; type: functional; settings: read-out: GI
Hep 3B2 [27] = assay: Induction of apoptosis in human Hep3B cells assessed as increase in cleaved PARP level at 50 uM after 48 hrs by Western blot analysis; type: functional, cell-based
Hep 3B2 [28] = assay: Induction of apoptosis in human Hep3B cells assessed as increase in cleaved-caspase 7 level at 50 uM after 48 hrs by Western blot analysis; type: functional, cell-based
Hep 3B2 [29] = assay: Cytotoxic activity against human Hep3B cells assessed as growth inhibition at 12.5 uM after 48 hrs by MTT assay; type: functional; settings: read-out: GI
Hep 3B2 [30] = assay: Induction of apoptosis in human Hep3B cells assessed as nuclear fragmentation at 50 uM after 48 hrs by AO staining-based phase contrast microscopic analysis; type: functional, cell-based
HepG2 [31] = assay: Induction of apoptosis in human HepG2 cells assessed as decrease in Bcl-2 level at 60 uM after 48 hrs by Western blot analysis; type: functional, cell-based
Hep 3B2 [32] = assay: Induction of apoptosis in human Hep3B cells assessed as cell shrinkage at 50 uM after 48 hrs by AO staining-based phase contrast microscopic analysis; type: functional
HepG2 [33] = assay: Cytotoxic activity against human HepG2 cells assessed as growth inhibition at 25 uM after 48 hrs by MTT assay; type: functional; settings: HepG2, 48 h, read-out: GI
HepG2 [34] = assay: Induction of apoptosis in human HepG2 cells assessed as increase in cleaved PARP level at 60 uM after 48 hrs by Western blot analysis; type: functional, cell-based

CC(/C=C\Oc1ccc(/C=C/CO)cc1)CO (centres undefined)
growth inhibition (GI) (HepG2 [1]): 7.81% | growth inhibition (GI) (Hep 3B2 [2]): -15.72%

CC(CO)CCOc1ccc(C=O)cc1 (centres undefined)
growth inhibition (GI) (HepG2 [1]): -1.05% | growth inhibition (GI) (Hep 3B2 [2]): 27.41%

C/C(=C\COc1ccc(/C=C/C=O)cc1)CO
inhibition of growth at 25 µM (Hep 3B2 [3]): 11.6% | inhibition of growth at 50 µM (Hep 3B2 [4]): 77.7% | Activity (HepG2 [5]): Active | Activity (HepG2 [6]): Active | Activity (HepG2 [7]): Active | growth inhibition (GI) (HepG2 [1]): 87.79% | IC50 (HepG2 [1]; Homo sapiens, HepG2, 48 h): 63.7 µM | Activity (Hep 3B2 [8]): Active | inhibition of growth at 100 µM (Hep 3B2 [9]): 91.5% | inhibition of growth at 100 µM (HepG2 [10]): 69.2% | Activity (Hep 3B2 [11]): Active | Activity (Hep 3B2 [12]): Active | Activity (Hep 3B2 [13]): Active | Activity (Hep 3B2 [14]): Active | Activity (HepG2 [15]): Active | Activity (Hep 3B2 [16]): Active | Activity (HepG2 [17]): Active | inhibition of growth at 12.5 µM (HepG2 [18]): 12.2% | Activity (HepG2 [19]): Active | growth inhibition (GI) (Hep 3B2 [2]): 93.78% | IC50 (Hep 3B2 [2]; Homo sapiens, Hep3B, 48 h): 46.5 µM | inhibition of growth at 6.25 µM (HepG2 [20]): -9.7% | Activity (HepG2 [21]): Active | inhibition of growth at 50 µM (HepG2 [22]): 52% | Activity (HepG2 [23]): Active | Activity (Hep 3B2 [24]): Active | Activity (HepG2 [25]): Active | inhibition of growth at 6.25 µM (Hep 3B2 [26]): -4.83% | Activity (Hep 3B2 [27]): Active | Activity (Hep 3B2 [28]): Active | inhibition of growth at 12.5 µM (Hep 3B2 [29]): 9.1% | Activity (Hep 3B2 [30]): Active | Activity (HepG2 [31]): Active | Activity (Hep 3B2 [32]): Active | inhibition of growth at 25 µM (HepG2 [33]): 7.01% | Activity (HepG2 [34]): Active

COC(=O)c1ccc(OCCC(C)CO)cc1 (centres undefined)
growth inhibition (GI) (HepG2 [1]): -11.27% | growth inhibition (GI) (Hep 3B2 [2]): 19.85%

COC(=O)/C=C/c1ccc(OCCC(C)CO)cc1 (centres undefined)
growth inhibition (GI) (HepG2 [1]): 39.48% | growth inhibition (GI) (Hep 3B2 [2]): 14.7%
